Assay type in all cases: cell-based
The nature of data set [1]: Cell cytotoxicity 50 assay (CC50), HEK cells. Conditions: human. Put shortly:
(§1)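 Starting from a 10 mM drug solution, serial dilutions were made in medium and added onto HEK cells, which were then incubated 72 h at 37 °C. Viability was read as CellTiter-Glo luminescence after 5 min, and CC50 was obtained by curve fitting.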

A further data set concerns the target T1, DUX4 (Homo sapiens, UniProt Q9UBX2).
T1 construct: expressed in transfected cells; host or cells: HEK293
Nature of the data set: DUX4 EC50 luciferase reporter protocol in transfected HEK293 cells. Particulars: 6 hr. The text has this:
EC50 Protocol This example provides a representative protocol for a single well of a 96-well plate. It can be scaled up as necessary for treatment of multiple wells. For negative controls, a well containing reporter DNA, Renilla DNA, and turbofect (without expression vector) were used. For positive controls, wells containing cells that were not treated with any inhibitor were used. They were transfected with the complete DNA lipid complex as set forth below. The DNA-lipid complex for one well of the 96-well plate is prepared by adding to a tube 100 ng of the transfection factor (TF) expression vector, 100 ng of TF reporter DNA, 10 ng of Renilla reporter DNA, […] Turbofect transfection reagent, and […] of the medium without any serum or penicillin/streptomycin. The combination was mixed by gentle flicking of the tube, and the mixture was pipetted into a well of a 96-well plate. The plate was then gently tapped to spread the combination evenly on the bottom of the well. The well was incubated for 30 min. HEK293 cells were grown until 80% confluent in DMEM supplemented with 10% fetal bovine serum, 1% penicillin streptomycin, and 1% amphotericin B. The adherent cells growing on a 10 cm plate were trypsinized with 1 mL of prewarmed trypsin. Once the cells detached from the plate, 10 mL of medium was added, and the cells were strained through a […] cell strainer. The cells were counted using a mixture of 10 mL cell suspension with 10 mL of trypan blue. Once the total number of cells are counted, a dilution of 150 k/mL was prepared. After incubation of the transfection complex was complete, […] of HEK293s (23.25 k total cells) were gently dispensed on top of the wells containing the 25 mL transfection complex, producing a total volume of about 180 mL. The mixture was then incubated for 24 h. To treat cells with each inhibitor, the inhibitors were prepared in the same growth medium. In a deep well block, the regular medium with serum was added to well 1 (135 mL) and to wells 2 through 10 (100 mL). To the first well was added 15 mL of 10 nM inhibitor. The final concentration of the drug in well 1 was 1 nM. The wells were pipeted up and down, and 50 mL was transferred from well 1 to well 2 (1/3 dilution). The well was mixed, and the seriation dilution was repeated with the remaining wells. Once the serial dilution was complete, using a multichannel pipet, 20 mL of each inhibitor were transferred to designated wells in a 96-well plate. […] Before the assay, a sufficient amount of 1× passive lysis buffer was prepared. The luciferase substrate buffer (Promega) was thawed completely and then mixed with the lyophilized luciferase substrate. The stop buffer (Promega) was also completely thawed. (1) Cell lysis: After treatment of the cells was complete, all the cell media is removed by flipping the 96-well plate over and tapping it dry on a dry paper towel. Immediately afterwards, the 1× passive lysis buffer (25 μL) was added. The plates were then placed on a rocker for 15 minutes at medium speed. (2)Measuring luciferase signal: The luciferase substrate solution for all wells was placed in a solution basin. The luciferase substrate solution was then added to every well (100 μL/well) using a multichannel pipette. The total luminescence was then read immediately using a plate reader. (3)Measuring Renilla signal: The “complete stop solution” was prepared in a solution basin by mixing the buffer with the 50× stop solution substrate (Promega) to make the final 1× solution. The complete stop solution was added to each well (50 μL/well) using a multichannel pipette. The total luminescence was then read immediately using a plate reader. Using a spreadsheet (e.g., Excel), the luciferase signal was divided by the renilla signal to get a relative luciferase unit.

A short description of data set [2]: Cell cytotoxicity 50 assay (CC50), MB200 cells, cell titer glo. Particulars: human. In short, it runs like this:
(§2)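 MB200 cells were seeded at 10 k/well in F10 medium with bFGF, 15% FBS and dexamethasone. Cells were exposed to serially diluted compound (from 10 mM stock) in triplicate for 72 h at 37 °C. Viability was read by CellTiter-Glo luminescence and CC50 was fitted.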

The subject of the next data set is HEK. Nature of the data set: Cell cytotoxicity 50 assay (CC50), HEK cells. In short, it runs like this:
as §1

A further data set relates to MBD3L2 RNA. Nature of the data set: RNA isolation and qPCR to determine MBD3L2 RNA levels in FSHD cells. Particulars: 48 hrs. In short, it runs like this: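 FSHD cells were treated one day after seeding with a DUX4 inhibitor (11 μM or 3.6 μM) for 48 h. Total RNA was DNase-treated and reverse-transcribed with random hexamers and M-MLV. MBD3L2 was quantified by SYBR Green qPCR in triplicate against EEF1A as the reference gene.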
On the technique in general: In qPCR the cycle at which signal appears reflects the starting amount.

A further data set has as its system MB200 cells. Nature of the data set: Cell cytotoxicity 50 assay (CC50), MB200 cells, cell titer glo. Particulars: 72 h. Put shortly: as §2

As usually defined, the CC50 is the concentration giving 50% cytotoxicity. Usually EC50 stands for the concentration that produces a half-maximal response.

T1 sequence (Q9UBX2 whole entry): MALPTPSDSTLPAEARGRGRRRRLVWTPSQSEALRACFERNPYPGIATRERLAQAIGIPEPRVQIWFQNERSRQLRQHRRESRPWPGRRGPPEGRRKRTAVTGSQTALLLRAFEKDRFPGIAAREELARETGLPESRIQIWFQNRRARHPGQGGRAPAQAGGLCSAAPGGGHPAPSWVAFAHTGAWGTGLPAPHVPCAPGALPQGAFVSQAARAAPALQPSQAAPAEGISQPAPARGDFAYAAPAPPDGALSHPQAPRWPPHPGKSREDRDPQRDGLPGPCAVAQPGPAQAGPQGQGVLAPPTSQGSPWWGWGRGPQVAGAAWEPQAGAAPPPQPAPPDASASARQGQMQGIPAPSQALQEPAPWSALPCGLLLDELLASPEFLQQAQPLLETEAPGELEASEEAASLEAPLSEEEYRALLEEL

As for `CC(=O)NCCCC(=O)N[C@@H]1CCC[C@H]1c1nc2ccccc2s1` [Compound 137], the CC50 at 72 h in data set [1] and in data set [2] was > 10 µM in each case. Moreover, at DUX4, the concentration for a half-maximal effect (EC50) is > 10 µM.

`O=C(CCC1CCC(=O)N1)Nc1ccc(-c2nc3ccccc3s2)cc1` (stereo not shown) [Compound 26]: the CC50 is > 10 µM in the data set with HEK and 1 to 10 µM in the data set with MB200 cells. Besides, the “qPCR MBD3L2 Inhib at 11 µM” value in the data set on MBD3L2 RNA is “YES”.

Consider `CC(=O)NC1CCC(C(=O)N[C@H]2CC[C@@H](c3nc4ccccc4s3)CC2)C1` (stereo partly shown) [Compound 133], for which the CC50 at 72 h in data set [1] and in data set [2] was > 10 µM in each case. Moreover, the EC50 on DUX4 is > 10 µM.

On to `O=C(CCCCN1C(=O)CCC1=O)NC1CCC(c2nc3ccccc3s2)CC1` (stereo not shown) [Compound 143], for which the CC50 at 72 h in data set [1] and in data set [2] was > 10 µM each time. Also, the EC50 on DUX4 was > 10 µM.

Turning to `CC(=O)NCCCNC(=O)[C@H]1CC[C@H](c2nc3ccccc3s2)C1` [Compound 166], the CC50 at 72 h in data set [1] and in data set [2] was > 10 µM throughout. Further, the half-maximal effective concentration (EC50) at DUX4 is > 10 µM.

`O=C1CCC(=O)N1[C@H]1C[C@@H](C(=O)Nc2ccc(-c3nc4ccccc4s3)cc2)C1` [Compound 95]: the CC50 at 72 h in data set [1] and in data set [2] was > 10 µM throughout. In addition, the EC50 on DUX4 is > 10 µM.

In the case of `CC(=O)NCCCC(=O)Nc1ccc(Cc2nc3ccccc3s2)cc1` [Compound 80], the CC50 at 72 h in data set [1] and in data set [2] was > 10 µM in each case. The EC50 on DUX4 is > 10 µM.

Take `CC(=O)NCCCC(=O)Nc1cc(F)cc(-c2nc3cc(F)ccc3s2)c1` [Compound 181]: the cytotoxic concentration (CC50) at 72 h in data set [1] and in data set [2] was > 10 µM in each case. Besides, the EC50 on DUX4 was > 10 µM.

As to `O=C1CCC(CCC(=O)N[C@H]2CC[C@H](c3nc4ccccc4s3)CC2)N1` (stereo partly shown) [Compound 187], the CC50 at 72 h in data set [1] and in data set [2] was > 10 µM each time. Also, the EC50 at DUX4 was > 10 µM.

For the compound `CC(=O)NCCCC(=O)N(C)C1CCC(c2nc3ccccc3s2)C1` (stereo not shown) [Compound 146], the CC50 at 72 h in data set [1] and in data set [2] was > 10 µM in each case. Besides, the EC50 on DUX4 is > 10 µM.

Turning to `CN(C(=O)CCCN1C(=O)CCC1=O)C1CCC(c2nc3ccccc3s2)C1` (stereo not shown) [Compound 147], the CC50 at 72 h in data set [1] and in data set [2] was > 10 µM each time. For the same compound, at DUX4, the EC50 is > 10 µM.

On to `O=C(NCCCN1C(=O)CCC1=O)c1ccc(Cc2nc3ccccc3s2)cc1` [Compound 150], for which the CC50 at 72 h in data set [1] and in data set [2] was > 10 µM throughout. Also, on DUX4, the EC50 was > 10 µM.

For `O=C(CCN1C(=O)CCC1=O)Nc1ccc(C(=O)c2nc3ccccc3s2)cc1` [Compound 69], the figures for the CC50 at 72 h in data set [1] and in data set [2] were > 10 µM and 1 to 10 µM, respectively. For the same compound, the EC50 at DUX4 is > 10 µM.

Regarding `O=C(CCCN1C(=O)CCC1=O)N[C@@H]1CC[C@H](c2nc3ccccc3s2)C1` [Compound 159], the CC50 with MB200 cells was > 10 µM.

With `CC(=O)NCCCC(=O)Nc1ncc(-c2nc3ccccc3s2)o1` [Compound 121], the CC50 at 72 h in data set [1] and in data set [2] was > 10 µM throughout. Moreover, on DUX4, the EC50 was > 10 µM.

Regarding `O=C1CCC(CCC(=O)N[C@H]2CC[C@@H](c3nc4ccccc4s3)CC2)N1` (stereo partly shown) [Compound 186], the CC50 at 72 h in data set [1] and in data set [2] was > 10 µM each time. In addition, the EC50 at DUX4 is > 10 µM.

Turning to `CC(=O)NCCCCC(=O)NC1CCC(c2nc3ccccc3s2)CC1` (stereo not shown) [Compound 139], the CC50 at 72 h in data set [1] and in data set [2] was > 10 µM throughout. Also, the EC50 at DUX4 was > 10 µM.

Consider `CC(=O)NCCCNC(=O)c1cc(F)cc(-c2nc3cc(F)ccc3s2)c1` [Compound 180], for which the CC50 at 72 h in data set [1] and in data set [2] was > 10 µM throughout. In addition, the EC50 on DUX4 is > 10 µM.

Consider `CC(=O)NCCCN(C)C(=O)[C@H]1CC[C@H](c2nc3ccccc3s2)C1` [Compound 154], for which the CC50 at 72 h in data set [1] and in data set [2] was > 10 µM each time. Besides, the concentration for a half-maximal effect (EC50) on DUX4 was > 10 µM.

As to `O=C(CCCN1C(=O)CCC1=O)N[C@H]1C[C@H](c2nc3ccccc3s2)C1` [Compound 98], the CC50 at 72 h in data set [1] and in data set [2] was > 10 µM in each case. For the same compound, at DUX4, the EC50 was > 10 µM.

Turning to `O=C(CCCN1C(=O)CCC1=O)N[C@H]1CC[C@@H](c2nc3ccccc3s2)C1` [Compound 160], the CC50 at 72 h in data set [1] and in data set [2] was > 10 µM throughout. For the same compound, the EC50 on DUX4 was > 10 µM.

Consider `CC(=O)NC1CCC(C(=O)NC2CCC(c3nc4ccccc4s3)C2)C1` (stereo not shown) [Compound 135], for which the CC50 at 72 h in data set [1] and in data set [2] was > 10 µM throughout. Moreover, the EC50 at DUX4 is > 10 µM.

For `O=C(CCCN1CCCC1=O)NC1COCC1c1nc2ccccc2s1` (stereo not shown) [Compound 122], the cytotoxic concentration (CC50) at 72 h in data set [1] and in data set [2] was > 10 µM in each case. Moreover, at DUX4, the EC50 is > 10 µM.

Turning to `O=C(CCCCN1C(=O)CCC1=O)N[C@H]1CC[C@H](c2nc3ccccc3s2)CC1` [Compound 152], the CC50 at 72 h in data set [1] and in data set [2] was > 10 µM throughout. For the same compound, the EC50 at DUX4 was > 10 µM.

`CC(=O)NCCCC(=O)N[C@H]1CCC[C@H]1c1nc2ccccc2s1` [Compound 136]: the CC50 at 72 h in data set [1] and in data set [2] was > 10 µM each time. The EC50 on DUX4 is > 10 µM.

Turning to `O=C(CCCN1C(=O)CCC1=O)N[C@H]1CC[C@H](c2nc3ccccc3s2)C1` [Compound 128], the CC50 at 72 h in data set [1] and in data set [2] was > 10 µM throughout. The EC50 on DUX4 was > 10 µM.

Consider `O=C(CCCN1C(=O)CCC1=O)Nc1ccc(Cc2nc3ccccc3s2)cc1` [Compound 148], for which the CC50 at 72 h in data set [1] and in data set [2] was > 10 µM each time. On DUX4, the EC50 was > 10 µM.

For the compound `O=C(CCCN1CCCC1=O)NC1CCCCC1c1nc2ccccc2s1` (stereo not shown) [Compound 123], the CC50 at 72 h in data set [1] and in data set [2] was > 10 µM in each case. Moreover, at DUX4, the EC50 is > 10 µM.

Turning to `O=C(CCCN1C(=O)CCC1=O)N[C@@H]1CC[C@H](c2nc3ccccc3s2)C1` [Compound 127], the CC50 at 72 h in data set [1] and in data set [2] was > 10 µM throughout. For the same compound, at DUX4, the EC50 was > 10 µM.

Turning to `CC(=O)NCCCN(C)C(=O)[C@@H]1CC[C@H](c2nc3ccccc3s2)C1` [Compound 153], the half-maximal cytotoxic concentration (CC50) at 72 h in data set [1] and in data set [2] was > 10 µM in each case. The EC50 at DUX4 was > 10 µM.

The record behind these values is US20250313555A1, “2-SUBSTITUTED THIAZOLE AND BENZOTHIAZOLE COMPOSITIONS AND METHODS AS DUX4 INHIBITORS” (ALTAY THERAPEUTICS, INC., priority 2022, published 2025).
